Test results: PubChem BioAssay AID390 (SGCOxCompounds, 2006)

target: Serine/threonine-protein kinase PAK 5 (Homo sapiens) (UniProt Q9P286); test: PAK5 binders by thermal shift, biophysical, DSF, SYPRO orange, recombinant protein (AID 390); conditions: at 10 µM, active compounds read high
Sequence (Q9P286 whole entry, looked up): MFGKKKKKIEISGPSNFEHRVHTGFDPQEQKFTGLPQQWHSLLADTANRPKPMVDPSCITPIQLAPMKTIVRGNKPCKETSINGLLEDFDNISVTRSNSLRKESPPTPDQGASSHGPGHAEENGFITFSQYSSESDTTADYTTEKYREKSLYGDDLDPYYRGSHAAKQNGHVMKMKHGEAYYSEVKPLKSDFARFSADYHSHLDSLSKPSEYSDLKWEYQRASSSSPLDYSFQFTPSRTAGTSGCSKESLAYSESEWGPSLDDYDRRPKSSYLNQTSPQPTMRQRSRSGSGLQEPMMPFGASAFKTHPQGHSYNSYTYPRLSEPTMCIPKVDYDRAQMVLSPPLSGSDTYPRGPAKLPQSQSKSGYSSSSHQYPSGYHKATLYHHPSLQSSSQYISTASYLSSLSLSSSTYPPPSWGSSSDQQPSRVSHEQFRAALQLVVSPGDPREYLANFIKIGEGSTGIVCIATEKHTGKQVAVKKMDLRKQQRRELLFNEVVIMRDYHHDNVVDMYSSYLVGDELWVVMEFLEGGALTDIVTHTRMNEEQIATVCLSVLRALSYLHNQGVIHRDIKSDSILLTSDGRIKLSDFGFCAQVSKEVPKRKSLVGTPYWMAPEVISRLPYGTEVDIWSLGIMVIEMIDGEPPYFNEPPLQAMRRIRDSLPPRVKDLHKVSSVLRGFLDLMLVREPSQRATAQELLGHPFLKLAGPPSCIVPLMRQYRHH

SMILES	Tm shift [Celsius]
CC(O)(O)C1(O)C[C@@H]2O[C@@]1(C)n1c3ccccc3c3c4c(c5c6ccccc6n2c5c31)C(=O)NC4 (stereo not given in full)	5.05
CC(C)C(CO)Nc1nc(Nc2cccc(Cl)c2)c2ncn(C(C)C)c2n1 (stereo not given)	4.5
O=C1Cc2c([nH]c3ccc(Br)cc23)-c2ccccc2N1	3.5
CCn1cnc2c(Nc3cccc(Cl)c3)nc(N[C@@H]3CCCC[C@@H]3N)nc21	6.75
Cc1cc(Nc2nc(-c3ccccc3)nc3ccccc23)n[nH]1	4.73
CC(=O)n1c(C2=c3ccccc3=NC2=O)c(O)[nH]c1=S	3.1
O=Nc1c(-c2c(O)[nH]c3cc(Br)ccc23)[nH]c2ccccc12	4.6
NCCNc1ncc(C(N)=O)c(Nc2cccc(C(F)(F)F)c2)n1	5.9
O=C1NC(=O)c2c1c1c3ccccc3n3c1c1c2c2ccccc2n1[C@@H]1CCC3O1	3.69
CC(C)c1nn(-c2c(Cl)cccc2Cl)c2nc(Cc3ccc(OCCO)cc3)[nH]c(=O)c12	3.1
NS(=O)(=O)c1ccc(Nc2nc(OCC3CCCCC3)c3[nH]cnc3n2)cc1	3.3
Cn1cc(/C=C2\C(=O)Nc3ccc(S(N)(=O)=O)cc32)c2ccccc21	4.3
OCC(O)CCO/N=C1/C(c2c(O)[nH]c3ccccc23)=Nc2ccccc21 (stereo not given)	3.37
NC(=O)c1ccc(-c2nc(-c3ccc4c(c3)OCCO4)c(-c3ccccn3)[nH]2)cc1	4.1
O=Nc1c(-c2c(O)[nH]c3ccccc23)[nH]c2ccccc12	4.2
O=C1NCc2c1c1c3ccccc3[nH]c1c1[nH]c3ccccc3c21	4.4
Nc1nc(Nc2ccc(S(N)(=O)=O)cc2)nn1C(=S)Nc1c(F)cccc1F	5.57
O=C1Cc2c([nH]c3ccc(N(O)O)cc23)-c2ccccc2N1	3.9
N#CCCc1ccc2c(c1)-c1[nH]c3ccc(-n4oo4)cc3c1CC(=O)N2	4.05
CCN(CC)CCNC(=O)c1c(C)[nH]c(/C=C2\C(=O)Nc3ccc(Cl)cc32)c1C	4.47
